Laboratory results as given in US20160090556A1, “PRODUCTS COMPRISING MALODOR REDUCTION MATERIALS” (The Procter & Gamble Company, priority 2014, published 2016).
Where “and” joins values, the source holds several entries; their conditions need not be identical. Equal entries are not always repeated. Where two headings read alike, the source gives them in different places.

Tests used:
[1] = Liquid dish neat product liquid-air partition coefficient; format: physicochemical
[2] = Blocker Index (BI) assigned by perfumers/expert graders on isovaleric acid swatches; design: species or system human; key: BI odor strength 0 (lowest, clean swatch) to 3 (highest)
Source text: Blocker materials suitable for use in consumer products of the present invention are chosen for their ability to decrease malodor, while not interfering with perception of a fragrance. Material selection is done by assigning two indices to a test sample material from two reference scales in order to rank odor strengths. The two reference scales are the Fragrance Fidelity Index (FFI) scale and the Blocker Index (BI) scale. The FFI ranks the ability of the test sample material to impart a perceivable odor which could cause interference when combined with another fragrance and the BI ranks the ability of the test sample material to reduce malodor perception. The two methods for assigning the indices to a test sample on the FFI and the BI reference scales are given below.
The first step in the method for assigning a BI to a test sample material on the BI reference scale is to create the BI reference swatches. […] Fabric swatches for this test are white knit polycotton (4 inch×4 inch) swatches from EMC ordered as PC 50/50. The supplier is instructed to strip the swatches first, stripping involves washing twice with a fragrance-free detergent and rinsing three times.
The BI scale contains one clean swatch with no malodor applied. […] These solutions are pipetted to the middle of the swatches. […] After drying for 30 minutes in a vented hood, the swatches are wrapped in aluminum foil to prevent odor contamination to the treated swatch. A clean untreated swatch is also included as the lowest anchor point of reference for malodor strength on the BI scale. The BI reference scale swatches should be used within 0.5 to 12 hours and discarded after 12 hours. The swatches are used as scale anchor points when graders evaluate a test sample(s) and are assigned a Blocker Index (BI) as show in Table 12.
The perfumer/expert grader is asked to rank order swatches according to a scale between 0 and 3.
The reference swatches represent the 0, 1, 2, and 3 BIs on the BI reference scale, Table 12. The expert grader should familiarizes him/herself with the strength of the odor on the BI reference swatches by sniffing each one starting at 0 (the lowest odor strength) and ending at 3 (the highest odor strength). This should be done prior to evaluating the swatch treated with the test material.
To evaluate the BI, the test material is applied to a malodorous swatch to determine how well the test material blocks the malodor. […] After drying the malodorous swatch a known concentration of test material solution, between 1 ppm and 100 ppm is pipetted onto the malodorous swatch. […] It is sometimes necessary to evaluate several levels of the test material between about 1 and about 100 ppm to determine the BI.
At least two perfumers/expert graders are used to assign the BI to the test sample. […] The test sample swatch is assigned a BI at or between numbers on the BI in table.

[3] = Probability of Ingredient Color Instability; format: physicochemical
[4] = class code letter within Comment Code

Row | Compound | Log of liquid dish neat product liquid-air partition coefficient (Comment Code K/L) [1, 4] | Log of liquid dish neat product liquid-air partition coefficient (Comment Code K/L) [1] | Probability of Ingredient Color Instability (Comment Code E/F) [3] | other results
1 | CCCCCCCCCCCCCCCC(=O)OC [Material 109] | K (Log of liquid dish neat product liquid-air partition coefficient greater than or equal to −7) |  |  | BI ([2]; Conc 10 ppm test material on isovaleric acid swatch): 2.0
2 | CC(C)CC(=O)O [isovaleric acid, reference compound] |  |  |  | BI grade of reference swatch, Ave ([2]; 2 μL 0.08%, all graders (Table 10)): 1.0; BI grade of reference swatch, individual Expert Grader ([2]; stripped swatch with 2 μL 0.08%): 0.5 and 1.0; BI grade of reference swatch, individual Expert Grader ([2]; stripped swatch with 5 μL 0.08%): 2.5; BI grade of reference swatch, individual Expert Grader ([2]; stripped swatch with 20 μL 0.08%): 2.5
3 | C=C(C)C1CC=C(COC(C)=O)CC1 (stereo not shown) [Material 947] |  | K (Log of liquid dish neat product liquid-air partition coefficient greater than or equal to −7) | F (Probability of Ingredient Color Instability<71%) | 
4 | CC(C)=CCCC1=CCC(C)(C=O)CC1 (stereo not shown) [Material 727] |  | K (Log of liquid dish neat product liquid-air partition coefficient greater than or equal to −7) | F (Probability of Ingredient Color Instability<71%) | 
5 | CCCCCCCC/C=C\CC=O [Material 884] |  | K (Log of liquid dish neat product liquid-air partition coefficient greater than or equal to −7) | F (Probability of Ingredient Color Instability<71%) | 
6 | CCCCCC1C(=O)CCC1CC(=O)OC (stereo not shown) [Material 113] | K (Log of liquid dish neat product liquid-air partition coefficient greater than or equal to −7) |  |  | Probability of Ingredient Color Instability (Comment Code E/F) [3, 4]: F (Probability of Ingredient Color Instability<71%)
7 | CCOC(=O)C1OC1(C)c1ccccc1 (stereo not shown) [Material 377] | K (Log of liquid dish neat product liquid-air partition coefficient greater than or equal to −7) |  |  | Probability of Ingredient Color Instability (Comment Code E/F) [3, 4]: F (Probability of Ingredient Color Instability<71%)
8 | CC1=C2CC(C(C)(C)O)CCC2(C)CCC1 (stereo not shown) [Material 872] |  | K (Log of liquid dish neat product liquid-air partition coefficient greater than or equal to −7) | F (Probability of Ingredient Color Instability<71%) | Comment Code: Log of liquid dish neat product liquid-air partition coefficient ([1]; code letters K, L): K (Log of liquid dish neat product liquid-air partition coefficient greater than or equal to −7)
